Laboratory results taken from patent US20240208994A1, “PLASMA KALLIKREIN INHIBITORS” (Merck Sharp & Dohme LLC, priority 2021, published 2024).

Assays:
human factor XIa = human factor XIa (Homo sapiens, UniProt P03951); assay: Factor XIa Assay; type: biochemical; settings: human factor XIa 0.04 nM, 30 min pre-incubation at 25° C., substrate GPR-AFC, pH 7.4, 60 min incubation; read-out: FXIa IC50
Human plasma kallikrein = target: T1, Human plasma kallikrein (Homo sapiens, UniProt P03952); assay: Plasma Kallikrein Assay; type: biochemical; settings: purified Human plasma kallikrein 0.5 nM, substrate Acetyl-K-P-R-AFC, HEPES pH 7.4, fluorescence 405 Ex/510 Em; read-out: PKal IC50
T1 construct: yields a heavy chain (371 amino acids) and a light chain (248 amino acids); purchased Enzyme Research Laboratories
T1 sequence (P03952 391-638 limits assumed): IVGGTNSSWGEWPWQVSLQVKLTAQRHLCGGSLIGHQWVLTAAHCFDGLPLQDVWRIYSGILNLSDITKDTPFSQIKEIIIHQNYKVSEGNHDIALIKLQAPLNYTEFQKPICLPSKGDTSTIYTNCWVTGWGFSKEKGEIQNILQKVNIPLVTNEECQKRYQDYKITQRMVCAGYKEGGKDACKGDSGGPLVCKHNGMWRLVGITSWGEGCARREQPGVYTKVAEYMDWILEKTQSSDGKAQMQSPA
T1 sequence (P03952 20-390 partner limits assumed): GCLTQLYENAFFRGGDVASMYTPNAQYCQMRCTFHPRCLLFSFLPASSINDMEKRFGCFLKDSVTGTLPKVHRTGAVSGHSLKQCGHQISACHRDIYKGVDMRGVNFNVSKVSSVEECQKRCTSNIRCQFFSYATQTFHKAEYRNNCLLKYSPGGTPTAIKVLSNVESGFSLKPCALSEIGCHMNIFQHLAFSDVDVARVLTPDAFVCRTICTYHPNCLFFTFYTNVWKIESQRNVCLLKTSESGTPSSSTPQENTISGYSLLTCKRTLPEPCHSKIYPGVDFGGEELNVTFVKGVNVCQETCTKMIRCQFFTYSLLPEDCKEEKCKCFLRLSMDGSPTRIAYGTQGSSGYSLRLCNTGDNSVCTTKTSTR
How it was run: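 Purified human plasma kallikrein (0.5 nM) with fluorogenic Acetyl-K-P-R-AFC at ≤0.2 Km in pH 7.4 HEPES with NaCl, CaCl2 and PEG 8000, after enzyme–inhibitor equilibration. Fluorescence read at 405/510 nm under linear conditions. IC50 from four-parameter fit; Ki by Cheng-Prusoff.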

human factor XIa, sequence (P03951 388-625 limits assumed): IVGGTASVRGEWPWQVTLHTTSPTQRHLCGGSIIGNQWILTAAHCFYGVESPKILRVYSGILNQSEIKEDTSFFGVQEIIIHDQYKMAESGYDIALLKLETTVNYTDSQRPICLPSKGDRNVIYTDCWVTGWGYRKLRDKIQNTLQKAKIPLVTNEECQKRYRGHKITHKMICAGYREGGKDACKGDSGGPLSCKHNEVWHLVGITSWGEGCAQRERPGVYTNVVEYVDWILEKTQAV
human factor XIa, sequence (P03951 19-387 partner limits assumed): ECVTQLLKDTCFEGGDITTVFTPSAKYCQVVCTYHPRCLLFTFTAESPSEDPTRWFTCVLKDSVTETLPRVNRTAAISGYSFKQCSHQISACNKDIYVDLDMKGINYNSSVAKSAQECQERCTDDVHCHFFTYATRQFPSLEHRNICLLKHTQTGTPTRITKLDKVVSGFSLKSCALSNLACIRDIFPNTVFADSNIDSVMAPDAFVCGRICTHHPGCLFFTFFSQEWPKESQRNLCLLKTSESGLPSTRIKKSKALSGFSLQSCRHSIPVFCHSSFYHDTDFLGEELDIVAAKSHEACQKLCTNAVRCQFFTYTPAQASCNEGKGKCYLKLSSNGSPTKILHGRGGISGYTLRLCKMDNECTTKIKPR

| SMILES | IC50 (human factor XIa) [nM] | IC50 (Human plasma kallikrein) [nM] |
| --- | --- | --- |
| N#Cc1ccc(-c2cc(N)n(CC(=O)N3CC[C@@]4(C3)OC(=O)Nc3ccc(Cl)c(F)c34)n2)cc1 [Example 63, (R)-4-(5-Amino-1-(2-(6-chloro-5-fluoro-2-oxo-1,2-dihydrospiro[benzo[d][1,3]oxazine-4,3′-pyrrolidin]-l′-xl)-2-oxoethyl)-1H-pyrazol-3-yl)benzonitrile] | 613 | 13.9 |
| Nc1cc(-c2cccc(F)c2)nn1CC(=O)N1CC[C@@]2(C1)OC(=O)Nc1ccc(Cl)c(F)c12 [Example 64, (R)-1′-(2-(5-Amino-3-(3-fluorophenyl)-1H-pyrazol-1-yl)acetyl)-6-chloro-5-fluorospiro[benzo[d] [1,3]oxazine-4,3′-pyrrolidin]-2(1H)-one] | 556 | 17 |
| Nc1cc(-c2ccc(Cl)cc2)nn1CC(=O)N1CC[C@@]2(C1)OC(=O)Nc1ccc(Cl)c(F)c12 [Example 65, (R)-1′-(2-(5-Amino-3-(4-chlorophenyl)-1H-pyrazol-1-yl)acetyl)-6-chloro-5-fluorospiro[benzo[d] [1,3]oxazine-4,3′-pyrrolidin]-2(1H)-one] | 1560 | 21.9 |
| Nc1cc(-c2ccc(OC(F)F)cc2)nn1CC(=O)N1CC[C@@]2(C1)OC(=O)Nc1ccc(Cl)c(F)c12 [Example 66, (R)-1′-(2-(5-Amino-3-(4-(difluoromethoxy)pheny1)-1H-pyrazol-1-yl)acetyl)-6-chloro-5-fluorospiro[benzo[d] [1,3]oxazine-4,3′-pyrrolidin]-2(1H)-one] | 640 | 10.3 |
| N#Cc1cccc(-c2cc(N)n(CC(=O)N3CC[C@@]4(C3)OC(=O)Nc3ccc(Cl)c(F)c34)n2)c1 [Example 67, (R)-3-(5-Amino-1-(2-(6-chloro-5-fluoro-2-oxo-1,2-dihydrospiro[benzo[d] [1,3]oxazine-4,3'-pyrrolidin]-1'-y1)-2-oxoethyl)-1H-pyrazol-3-y1)benzonitrile] | 433 | 12 |
